According to patent US6423722B1, “Crystalline macrolides and process for their preparation” (Novartis AG, priority 1997, dated 2002):
Values after ≈ are worked out from the molar mass of the structure shown. Like-named read-outs stand apart in the source and are kept apart here. Values belong to the compound of their own block, whether it stands above or below them.

Key:
Format in all cases: physicochemical
[1] = solubility of the crystal forms in water and organic solvents
[2] = solubility in the oil phase of cream (oleyl alcohol/miglyol 812 4:6)
[3] = hygroscopicity (uptake determined by thermogravimetry)
Procedure: hygroscopicity (uptake determined by thermogravimetry): 1.49% (1 day, 92% r.h.); 1.78% (1 week, 25° C., 75% r.h.); hygroscopicity(uptake determined by thermogravimetry): 1 day, 92% r.h. and 1 week, 25° C., 75% r.h.: none;

[4] = dissolution in the oil phase in the preparation of a cream; conditions: for time to dissolve in the oil phase: preparation of a cream
Source text: The availability of well-defined crystalline forms of the compound of formula I is therefore particularly indicated for use in the preparation of galenical forms of the compound where it is indicated to overcome the above disadvantages, such as in the preparation of topical forms, e.g. creams, emulsions and ointments where it is desired to include the compound normally in dissolved state but under carefully controlled conditions. Thus in the preparation of a cream, it has been observed that Form A dissolves in the oil phase in about 10 minutes, whereas for Form B it takes about 6 hours.
(§1) During the preparation of these preformulations, it is observed that the solving speed of crystal Form B in the oily phase of the cream is much slower than that of crystal Form A. Immediately after manufacturing, the forms are investigated and no remaining crystals are observed.

[5] = solubilization of Forms A and B in 1% creams; examination for crystals after manufacturing and storage; conditions: room temperature; estimated
Procedure: a) The solubility of Form A in a cream formulation is estimated to be about 1% at room temperature. In the manufacturing of cream, the drug substance is completely dissolved in the oily phase at 60-75°. To assess whether and after which storage time part of the drug substance dissolved will crystallize from the 1% cream, a series of batches is examined for crystals.
The drug substance used in the batches and preformulations mentioned above contained 100% Form A.
b) To assess whether drug substance containing Form B can be completely dissolved in the manufacturing of cream and to evaluate the long-term crystallization behaviour, several preformulations (cream, 1%) containing 0%, 1%, 5% and 10% Form B relative to the total content of compound of formula I are manufactured and put on stability testing at different temperatures.
as §1
To get information about the long-term crystallization behaviour of these forms, the stability samples are further investigated after 6 weeks, 3, 6 and 9 months storage.

[6] = thermodynamic stability of the crystal forms; conditions: compared with Form A

solubility ([1]; acetone, 25 °C, organic solvent or mixture, at 25° C., read-out: solubility in acetone): > 50 mg/mL
solubility ([1]; acetonitrile, 25 °C, organic solvent or mixture, at 25° C., read-out: solubility in acetonitrile): > 50 mg/mL
solubility in diethylether ([1]; at 5° C.): > 100 mg/mL
solubility in diisopropyl ether ([1]; at 5° C.): > 100 mg/mL
solubility in ethanol ([1]; at 5° C.): > 100 mg/mL
solubility in hexane ([1]; at 5° C.): < 10 mg/mL
solubility in methanol ([1]; at 5° C.): > 100 mg/mL
solubility in water ([1]; at 5° C., result in words): insoluble
solubility in water ([1]; at 25° C.): < 1 mg/mL
solubility ([1]; ethanol, 25 °C, organic solvent or mixture, at 25° C., read-out: solubility in ethanol): > 50 mg/mL
solubility ([1]; ethyl acetate, 5 °C, organic solvent or mixture, at 5° C., read-out: solubility in ethyl acetate): > 100 mg/mL
solubility ([1]; ethyl acetate, 25 °C, organic solvent or mixture, at 25° C., read-out: solubility in ethyl acetate): > 50 mg/mL
solubility ([1]; isopropanol, 25 °C, organic solvent or mixture, at 25° C., read-out: solubility in isopropanol): > 50 mg/mL
solubility ([1]; methanol, 25 °C, organic solvent or mixture, at 25° C., read-out: solubility in methanol): > 50 mg/mL
solubility in the oil phase of cream [2]: 2.49%
hygroscopicity (uptake determined by thermogravimetry) ([3]; 1 week, 25° C., 75% r.h.): 1.78%
hygroscopicity (uptake determined by thermogravimetry) ([3]; 1 day, 92% r.h.): 1.49%
time to dissolve in the oil phase [4]: about 10 minutes
solubility in a cream formulation [5]: about 1%
Structure (SMILES): CC[C@@H]1/C=C(\C)C[C@H](C)C[C@H](OC)[C@H]2O[C@@](O)(C(=O)C(=O)N3CCCC[C@H]3C(=O)O[C@H](/C(C)=C/[C@@H]3CC[C@H](Cl)[C@H](OC)C3)[C@H](C)[C@@H](O)CC1=O)[C@H](C)C[C@@H]2OC [Form A, 33-epichloro-33-desoxyascomycin]

solubility in diethylether ([1]; at 5° C.): 9.3 mg/mL (≈ 11.5 mM)
solubility in diisopropyl ether ([1]; at 5° C.): 1.9 mg/mL (≈ 2.34 mM)
solubility in ethanol ([1]; at 5° C.): 18.1 mg/mL (≈ 22.3 mM)
solubility in ethyl acetate ([1]; at 5° C.): > 50 mg/mL
solubility in hexane ([1]; at 5° C.): 0.8 mg/mL (≈ 0.987 mM)
solubility in methanol ([1]; at 5° C.): 46.3 mg/mL (≈ 57.1 mM)
solubility in ethanol ([1]; at 25° C.): 34.4 mg/mL (≈ 42.4 mM)
solubility in ethyl acetate ([1]; at 25° C.): > 50 mg/mL
solubility in methanol ([1]; at 25° C.): > 50 mg/mL
solubility in water ([1]; at 25° C.): 0.4 mg/mL (≈ 0.494 mM)
solubility ([1]; diethyl ether, 25 °C, organic solvent or mixture, at 25° C., read-out: solubility in diethyl ether): 16.3 mg/mL (≈ 20.1 mM)
solubility ([1]; diisopropyl ether, 25 °C, organic solvent or mixture, at 25° C., read-out: solubility in diisopropyl ether): 3.1 mg/mL (≈ 3.82 mM)
solubility ([1]; hexane, 25 °C, organic solvent or mixture, at 25° C., read-out: solubility in hexane): 1.5 mg/mL (≈ 1.85 mM)
solubility ([1]; water, 5 °C, water, at 5° C., read-out: solubility in water): 0.3 mg/mL (≈ 0.37 mM)
solubility in the oil phase of cream [2]: 0.37%
hygroscopicity (uptake determined by thermogravimetry) ([3]; 1 week, 25° C., 75% r.h., result in words): none
hygroscopicity (uptake determined by thermogravimetry) ([3]; 1 day, 92% r.h., result in words): none
solving speed in the oily phase of the cream ([4]; preparation of 1% cream preformulations, compared with Form A): much slower
time to dissolve in the oil phase [4]: about 6 hours
Structure (SMILES): CC[C@@H]1/C=C(\C)C[C@H](C)C[C@H](OC)[C@H]2O[C@@](O)(C(=O)C(=O)N3CCCC[C@H]3C(=O)O[C@H](/C(C)=C/[C@@H]3CC[C@H](Cl)[C@H](OC)C3)[C@H](C)[C@@H](O)CC1=O)[C@H](C)C[C@@H]2OC [Form B, 33-epichloro-33-desoxyascomycin]
thermodynamic stability [6]: thermodynamically a more stable form than Form A
